In US20250129092A1, “COMPOUNDS USEFUL IN MODULATION OF AHR SIGNALLING” (JAGUAHR THERAPEUTICS PTE LTD, priority 2021, published 2025):

Columns and labels:
AhR [1] = molecular target: T1, AhR (Homo sapiens, UniProt P35869); experiment: AhR antagonism in U937 cells (Promega P450-Glo assay); assay type: cell-based; set-up: endogenous in cells; host or cells: U937 cells; conditions: CYP1A1 activity readout (Luciferin-CEE), head names VAF347, average, read-out: U937 Antagonist pIC50-VAF347: av. pIC50 (converted)
T1 sequence (P35869 11-848): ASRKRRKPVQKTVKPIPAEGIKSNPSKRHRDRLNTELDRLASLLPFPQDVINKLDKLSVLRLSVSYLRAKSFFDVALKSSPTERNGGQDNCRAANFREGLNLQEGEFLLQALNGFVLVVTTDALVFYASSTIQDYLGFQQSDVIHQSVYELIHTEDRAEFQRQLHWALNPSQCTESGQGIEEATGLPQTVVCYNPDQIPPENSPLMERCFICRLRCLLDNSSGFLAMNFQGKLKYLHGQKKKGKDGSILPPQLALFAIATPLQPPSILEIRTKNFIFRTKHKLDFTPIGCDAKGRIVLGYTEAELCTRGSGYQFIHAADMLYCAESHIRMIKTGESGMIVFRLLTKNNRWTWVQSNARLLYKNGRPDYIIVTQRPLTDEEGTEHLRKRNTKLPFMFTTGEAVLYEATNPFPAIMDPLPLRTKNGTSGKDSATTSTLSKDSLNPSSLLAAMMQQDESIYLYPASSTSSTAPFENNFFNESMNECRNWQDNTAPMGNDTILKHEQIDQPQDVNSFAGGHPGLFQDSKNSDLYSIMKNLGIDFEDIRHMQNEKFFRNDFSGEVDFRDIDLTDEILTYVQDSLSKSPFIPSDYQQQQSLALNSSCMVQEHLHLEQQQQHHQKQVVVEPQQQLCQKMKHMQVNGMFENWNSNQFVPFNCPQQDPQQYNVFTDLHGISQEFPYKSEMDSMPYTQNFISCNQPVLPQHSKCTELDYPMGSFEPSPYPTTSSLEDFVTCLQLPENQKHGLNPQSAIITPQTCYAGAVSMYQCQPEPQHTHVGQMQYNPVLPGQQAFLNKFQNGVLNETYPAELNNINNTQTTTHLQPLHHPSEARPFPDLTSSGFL
Procedure: In Vitro Assay 1: AhR Antagonism in U937 Cells (Promega P450-Glo™ Assay)
AhR antagonism was assessed in LJ937 cells (myeloid lineage cell line derived from a human histiocytic lymphoma). Ligand binds the AhR in the cytoplasm, and the AhR-ligand complex translocates to the nucleus and forms a heterodimer with AhR nuclear translocator (Arnt). This complex binds the xenobiotic response element (XRE) in the 5′ upstream region of the CYP1A1 promoter, enhancing CYP1A1 expression. CYP1A1 activity is subsequently determined by assessing the conversion of Luciferin-CEE to luciferin, which in turn reacts with luciferase to produce light. The amount of light produced is directly proportional to cytochrome P450 activity. U937 cells in Ultraculture serum free media (Lonza) were plated at 100,000 cells per well in a round bottom 96 well tissue culture plate. […] The plates were then placed in an incubator at 37° C., ≥85% humidity, 5% CO2 for 24 hrs. After aspiration of the supernatant the CYP1A1 substrate Luciferin-CEE ([Final] 83 μM) was added and incubated for 3 hrs before the reaction was stopped by adding luciferin detection reagent and luminescence was read after 20 minutes.

AhR [2] = molecular target: T1, AhR; experiment: AhR antagonism in human PBMCs - inhibition of IL-22 release; assay type: cell-based; set-up: endogenous in cells; conditions: human PBMCs activated with CD3/CD28 agonist mixture, 72 hrs, IL-22 ELISA; average; read-out: hPBMC Inhibition of CD3/CD28 induced IL-22 release: av. pIC50 (converted)
Text: In Vitro Assay 3: AhR Antagonism in Human Peripheral Blood Mononuclear Cells (PBMCs)-Inhibition of Interleukin-22 (IL-22) Release.
PBMCs were isolated from human peripheral blood using Lymphoprep™ and diluted to 1×10^6 cells per ml in RPMI media containing […] foetal bovine serum, 1% penicillin-streptomycin and 1% non essential amino acids. PBMCs were subsequently activated with 1p1 per 100,000 cells of a CD3/CD28 agonist mixture (human T Cell TransAct™ (Miltenyi Biotec)) and then plated at 100,000 cells per well in a round bottom 96 well tissue culture plate. One hour after stimulation seven concentrations of each test compound or vehicle (final [DMSO] 0.2%) were added. The plates were then placed in an incubator at 37° C., ≥85% humidity, 5% […] for 72 hrs before the media was removed and stored at −20° C. until cytokine analysis. IL-22 was measured using human IL-22 DuoSet ELISA (R&D systems) according to the manufacturer's instructions.

Structure (SMILES)	IC50 (AhR [1]) [nM]	IC50 (AhR [2]) [nM]
Cc1ncc(-c2nc3c(c(NCCc4c[nH]c5ccccc45)n2)OCCN3)s1 [Example 7, N-[2-(1H-indol-3-yl)ethyl]-2-(2-methylthiazol-5-yl)-7,8-dihydro-6H-pyrimido[5,4-b][1,4]oxazin-4-amine]	9.12	9.55
CC1COc2c(NCCc3c[nH]c4ccccc34)nc(-c3cncc(F)c3)nc2N1 (stereo not shown) [Example 5, 2-(5-fluoro-3-pyridyl)-N-[2-(1H-indol-3-yl)ethyl]-7-methyl-7,8-dihydro-6H-pyrimido[5,4-b][1,4]oxazin-4-amine]	1.86	0.955
Cc1ncsc1-c1nc2c(c(NCCc3c[nH]c4ccccc34)n1)OCCN2 [Example 10, N-[2-(1H-indol-3-yl)ethyl]-2-(4-methylthiazol-5-yl)-7,8-dihydro-6H-pyrimido[5,4-b][1,4]oxazin-4-amine]	4.57	8.13
Cc1ncc(-c2nc(NCCc3c[nH]c4ccccc34)c3c(n2)N(C2COC2)CCO3)s1 [Example 33, N-[2-(1H-indol-3-yl)ethyl]-2-(2-methylthiazol-5-yl)-8-(oxetan-3-yl)-6,7-dihydropyrimido[5,4-b][1,4]oxazin-4-amine]	14.1	13.5
Cc1[nH]c2c(F)cc(F)cc2c1CCNc1nc(-c2ccc[nH]c2=O)nc2c1OCCN2 [Example 42, 3-(4-((2-(5,7-difluoro-2-methyl-1H-indol-3-yl)ethyl)amino)-7,8-dihydro-6H-pyrimido[5,4-b][1,4]oxazin-2-yl)pyridin-2-ol]	209	–
CC1(C)COc2c(NCCc3c[nH]c4ccccc34)nc(-c3cncc(F)c3)nc2N1 [Example 31, 2-(5-fluoro-3-pyridyl)-N-[2-(1H-indol-3-yl)ethyl]-7,7-dimethyl-6,8-dihydropyrimido[5,4-b][1,4]oxazin-4-amine]	16.2	–
Cc1ncc(-c2nc3c(c(N[C@@H]4CCc5[nH]c6ccccc6c5C4)n2)OCCN3)s1 [Example 51, 2-(2-methylthiazol-5-yl)-N-[(3R)-2,3,4,9-tetrahydro-1H-carbazol-3-yl]-7,8-dihydro-6H-pyrimido[5,4-b][1,4]oxazin-4-amine]	204	–
COC[C@@H]1COc2c(NCCc3c[nH]c4cc(F)ccc34)nc(-c3ccc[nH]c3=O)nc2N1 [Example 47, (R)-3-(4-((2-(6-fluoro-1H-indol-3-yl)ethyl)amino)-7-(methoxymethyl)-7,8-dihydro-6H-pyrimido[5,4-b][1,4]oxazin-2-yl)pyridin-2(1H)-one]	3.24	–
O=c1[nH]cccc1-c1nc2c(c(NCCc3c(Cl)[nH]c4ccccc34)n1)OCCN2 [Example 40, 3-(4-((2-(2-chloro-1H-indol-3-yl)ethyl)amino)-7,8-dihydro-6H-pyrimido[5,4-b][1,4]oxazin-2-yl)pyridin-2(1H)-one]	15.1	–
Cc1[nH]c2c(F)cccc2c1CCNc1nc(-c2ccc[nH]c2=O)nc2c1OCCN2 [Example 41, 3-[4-[2-(7-fluoro-2-methyl-1H-indol-3-yl)ethylamino]-7,8-dihydro-6H-pyrimido[5,4-b][1,4]oxazin-2-yl]-1H-pyridin-2-one]	19.5	–
Cc1ncc(-c2nc(N[C@@H]3CCc4[nH]c5ccccc5c4C3)c3c(n2)N(S(C)(=O)=O)CCO3)s1 [Example 39, 8-methylsulfonyl-2-(2-methylthiazol-5-yl)-N-[(3R)-2,3,4,9-tetrahydro-1H-carbazol-3-yl]-6,7-dihydropyrimido[5,4-b][1,4]oxazin-4-amine]	89.1	–
COc1ncc(F)cc1-c1nc2c(c(NCCc3c[nH]c4ccccc34)n1)OCCN2 [Example 67, 2-(5-fluoro-2-methoxy-3-pyridyl)-N-[2-(1H-indol-3-yl)ethyl]-7,8-dihydro-6H-pyrimido[5,4-b][1,4]oxazin-4-amine]	66.1	–
Oc1ncccc1-c1nc2c(c(NCCc3c[nH]c4cc(OC(F)(F)F)ccc34)n1)OCCN2 [Example 43, 3-(4-((2-(6-(trifluoromethoxy)-1H-indol-3-yl)ethyl)amino)-7,8-dihydro-6H-pyrimido[5,4-b][1,4]oxazin-2-yl)pyridin-2(1H)-one]	7.08	–
Cc1c[nH]c(=O)c(-c2nc3c(c(NCCc4c[nH]c5ccccc45)n2)OCCN3)c1 [Example 68, 3-[4-[2-(1H-indol-3-yl)ethylamino]-7,8-dihydro-6H-pyrimido[5,4-b][1,4]oxazin-2-yl]-5-methyl-pyridin-2-ol]	33.1	–
Cn1cc(-c2nc3c(c(NCCc4c[nH]c5ccccc45)n2)OCCN3)ccc1=O [Example 58, 5-[4-[2-(1H-indol-3-yl)ethylamino]-7,8-dihydro-6H-pyrimido[5,4-b][1,4]oxazin-2-yl]-1-methyl-pyridin-2-one]	347	–
Cn1cc(-c2nc3c(c(NCCc4c[nH]c5ccccc45)n2)OCCN3)nn1 [Example 55, N-[2-(1H-indol-3-yl)ethyl]-2-(1-methyltriazol-4-yl)-7,8-dihydro-6H-pyrimido[5,4-b][1,4]oxazin-4-amine]	–	> 2000
O=c1ccc(-c2nc3c(c(NCCc4c[nH]c5ccccc45)n2)OCCN3)c[nH]1 [Example 18, 5-[4-[2-(1H-indol-3-yl)ethylamino]-7,8-dihydro-6H-pyrimido[5,4-b][1,4]oxazin-2-yl]-1H-pyridin-2-one]	447	–
O=c1[nH]cc(C(F)(F)F)cc1-c1nc2c(c(NCCc3c[nH]c4ccccc34)n1)OCCN2 [Example 69, 3-(4-((2-(1H-indol-3-yl)ethyl)amino)-7,8-dihydro-6H-pyrimido[5,4-b][1,4]oxazin-2-yl)-5-(trifluoromethyl)pyridin-2 (1H)-one]	81.3	–
O=c1[nH]cc(Cl)cc1-c1nc2c(c(NCCc3c[nH]c4ccccc34)n1)OCCN2 [Example 72, 3-(4-((2-(1H-indol-3-yl)ethyl)amino)-7,8-dihydro-6H-pyrimido[5,4-b][1,4]oxazin-2-yl)-5-chloropyridin-2-ol]	14.8	–
Cc1ncc(-c2nc3c(c(NCCc4c[nH]c5ccccc45)n2)OCCN3)cc1F [Example 16, 2-(5-fluoro-6-methyl-3-pyridyl)-N-[2-(1H-indol-3-yl)ethyl]-7,8-dihydro-6H-pyrimido[5,4-b][1,4]oxazin-4-amine]	33.1	–
Cc1nc(C)c(-c2nc3c(c(NCCc4c[nH]c5ccccc45)n2)OCCN3)s1 [Example 52, 2-(2,4-dimethylthiazol-5-yl)-N-[2-(1H-indol-3-yl)ethyl]-7,8-dihydro-6H-pyrimido[5,4-b][1,4]oxazin-4-amine]	17.8	–
COc1ncc(F)cc1-c1nc2c(c(N[C@@H]3CCc4[nH]c5ccccc5c4C3)n1)OCCN2 [Example 65, 2-(5-fluoro-2-methoxy-3-pyridyl)-N-[(3R)-2,3,4,9-tetrahydro-1H-carbazol-3-yl]-7,8-dihydro-6H-pyrimido[5,4-b][1,4]oxazin-4-amine]	> 813	–
COc1ncc(C)cc1-c1nc2c(c(NCCc3c[nH]c4ccccc34)n1)OCCN2 [Example 23, N-[2-(1H-indol-3-yl)ethyl]-2-(2-methoxy-5-methyl-3-pyridyl)-7,8-dihydro-6H-pyrimido[5,4-b][1,4]oxazin-4-amine]	457	–
Cc1ccc(-c2nc3c(c(NCCc4c[nH]c5ccccc45)n2)OCCN3)cn1 [Example 15, N-[2-(1H-indol-3-yl)ethyl]-2-(6-methyl-3-pyridyl)-7,8-dihydro-6H-pyrimido[5,4-b][1,4]oxazin-4-amine]	89.1	–
